Results as given in patent US12433953B2, “Compositions and methods related to tumor activated antibodies targeting EGFR and effector cell antigens” (Janux Therapeutics, Inc., priority 2021, dated 2025).
Like-named read-outs stand apart in the source and are kept apart here.

Assays:
[1] = molecular target: EGFR Fab binding to the EGFR antigen; test: ELISA competitive inhibition of EGFR Fab binding to EGFR antigen
EGFR Fab = test: ELISA binding of peptides to EGFR Fab; settings: for EC50: read-out: EC50 for peptide binding to αEGFR Fab
[2] = Table 21, peptide-8 alanine scanning mutants, read-out: IC50
[3] = Table 20, peptide-8 alanine scanning mutants, read-out: IC50
[4] = read-out: IC50 for peptide inhibition of αEGFR Fab binding to EGFR antigen, Table 17

| Structure (SMILES) | IC50 [1, 2] [µM] | IC50 [1, 3] [µM] | Fold shift in IC50 relative to Peptide-8 (IC50 Ala mutant/IC50 Peptide-8) ([1]; Table 20) | also measured |
| --- | --- | --- | --- | --- |
| CC[C@H](C)[C@@H]1NC(=O)[C@H](Cc2c[nH]cn2)NC(=O)[C@H](CO)NC(=O)[C@H](CCCNC(=N)N)NC(=O)[C@@H](NC(=O)[C@@H]2CCCN2)CSSC[C@@H](C(=O)N[C@H](C(=O)O)C(C)C)NC(=O)[C@H](C)NC(=O)[C@@H]2CCCN2C(=O)[C@H](CCCCN)NC(=O)[C@H](C)NC(=O)[C@H](C(C)C)NC(=O)[C@H](CC(=O)O)NC1=O [Peptide-26] | > 100 | – | – | – |
| CC[C@H](C)[C@@H]1NC(=O)[C@H](Cc2c[nH]cn2)NC(=O)[C@H](CO)NC(=O)[C@H](CCCNC(=N)N)NC(=O)[C@@H](NC(=O)[C@@H]2CCCN2)CSSC[C@@H](C(=O)N[C@H](C(=O)O)C(C)C)NC(=O)[C@H]([C@@H](C)CC)NC(=O)[C@@H]2CCCN2C(=O)[C@H](CCCCN)NC(=O)[C@H](C)NC(=O)[C@H](C(C)C)NC(=O)[C@H](C)NC1=O [Peptide-22] | – | > 100 | – | – |
| CC[C@H](C)[C@@H]1NC(=O)[C@H](Cc2c[nH]cn2)NC(=O)[C@H](C)NC(=O)[C@H](CCCNC(=N)N)NC(=O)[C@@H](NC(=O)[C@@H]2CCCN2)CSSC[C@@H](C(=O)N[C@H](C(=O)O)C(C)C)NC(=O)[C@H]([C@@H](C)CC)NC(=O)[C@@H]2CCCN2C(=O)[C@H](CCCCN)NC(=O)[C@H](C)NC(=O)[C@H](C(C)C)NC(=O)[C@H](CC(=O)O)NC1=O [Peptide-19] | – | 93 | 24 | – |
| CC[C@H](C)[C@@H]1NC(=O)[C@@H]2CCCN2C(=O)[C@H](CCCCN)NC(=O)[C@H](C)NC(=O)[C@@H]2CCCN2C(=O)[C@H](CC(=O)O)NC(=O)[C@H](CC(N)=O)NC(=O)[C@H](Cc2c[nH]cn2)NC(=O)[C@H](CO)NC(=O)[C@H](CC(C)C)NC(=O)[C@@H](NC(=O)[C@@H]2CCCN2)CSSC[C@@H](C(=O)N[C@@H](C)C(=O)O)NC1=O [Peptide-41] | – | – | – | IC50 ([1]; read-out: IC50 for peptide inhibition of αEGFR Fab binding to EGFR antigen, Table 27, peptide-8 optimization): 4.25 µM; EC50 (EGFR Fab; Table 25, peptide-8 optimization): 0.292 µM |
| CSCC[C@@H]1NC(=O)[C@H](C(C)C)NC(=O)[C@H](Cc2c[nH]c3ccccc23)NC(=O)[C@H](Cc2c[nH]cn2)NC(=O)[C@H](C)NC(=O)[C@@H](NC(=O)CNC(=O)CN)CSSC[C@@H](C(=O)N[C@@H](CCC(N)=O)C(=O)O)NC(=O)[C@H](Cc2c[nH]c3ccccc23)NC(=O)[C@H](CO)NC(=O)[C@H](CC(C)C)NC(=O)[C@H](CCCNC(=N)N)NC1=O [Peptide-10] | – | – | – | IC50 [1, 4]: > 0.3 µM; EC50 (EGFR Fab; Table 15): > 1 µM |
| CC[C@H](C)[C@@H]1NC(=O)[C@H](Cc2c[nH]cn2)NC(=O)[C@H](CO)NC(=O)[C@H](CCCNC(=N)N)NC(=O)[C@@H](NC(=O)[C@@H]2CCCN2)CSSC[C@@H](C(=O)N[C@H](C(=O)O)C(C)C)NC(=O)[C@H]([C@@H](C)CC)NC(=O)[C@@H]2CCCN2C(=O)[C@H](CCCCN)NC(=O)[C@H](C)NC(=O)[C@H](C(C)C)NC(=O)[C@H](CC(=O)O)NC1=O [Peptide-8] | – | – | – | inhibiting EGFR Fab binding to the EGFR antigen (in words) ([1]; among peptides of Table 14): most effective at inhibiting EGFR Fab binding to the EGFR antigen; binding affinity for EGFR Fab (in words) (EGFR Fab; among peptides of Table 14): strongest binding affinities (lowest EC50s); EC50 (EGFR Fab; Table 15): 0.008 µM; EC50 (EGFR Fab; Table 24, peptide-8 optimization): 0.7 µM |
| CC[C@H](C)[C@@H]1NC(=O)[C@H](Cc2c[nH]cn2)NC(=O)[C@H](CO)NC(=O)[C@H](CCCNC(=N)N)NC(=O)[C@@H](NC(=O)[C@@H]2CCCN2)CSSC[C@@H](C(=O)N[C@H](C(=O)O)C(C)C)NC(=O)[C@H]([C@@H](C)CC)NC(=O)[C@@H]2CCCN2C(=O)[C@H](C)NC(=O)[C@H](C)NC(=O)[C@H](C(C)C)NC(=O)[C@H](CC(=O)O)NC1=O [Peptide-24] | > 100 | – | – | – |
| CC(C)C[C@H](NC(=O)[C@@H]1CSSC[C@H](NC(=O)[C@@H](N)Cc2c[nH]c3ccccc23)C(=O)N[C@@H]([C@@H](C)O)C(=O)N[C@@H](C(C)C)C(=O)N[C@@H](Cc2c[nH]c3ccccc23)C(=O)NCC(=O)N[C@@H](CC(=O)O)C(=O)N[C@@H](CCCNC(=N)N)C(=O)N[C@@H](CCC(N)=O)C(=O)N[C@@H](CCC(=O)O)C(=O)N[C@@H](C(C)C)C(=O)N[C@@H](CCCNC(=N)N)C(=O)N1)C(=O)O [Peptide-7] | – | – | – | IC50 [1, 4]: > 0.3 µM; EC50 (EGFR Fab; Table 15): > 1 µM |
| CC[C@H](C)[C@@H]1NC(=O)[C@H](C)NC(=O)[C@H](CCCCN)NC(=O)[C@H](C)NC(=O)[C@H](C(C)C)NC(=O)[C@H](CC(=O)O)NC(=O)[C@H]([C@@H](C)CC)NC(=O)[C@H](Cc2c[nH]cn2)NC(=O)[C@H](CO)NC(=O)[C@H](CCCNC(=N)N)NC(=O)[C@@H](NC(=O)[C@@H]2CCCN2)CSSC[C@@H](C(=O)N[C@H](C(=O)O)C(C)C)NC1=O [Peptide-25] | > 100 | – | – | – |
| CC[C@H](C)[C@@H]1NC(=O)[C@@H]2CCCN2C(=O)[C@H](CCCCN)NC(=O)[C@H](C)NC(=O)[C@H](C(C)C)NC(=O)[C@H](CC(=O)O)NC(=O)[C@H](C)NC(=O)[C@H](Cc2c[nH]cn2)NC(=O)[C@H](CO)NC(=O)[C@H](CCCNC(=N)N)NC(=O)[C@@H](NC(=O)[C@@H]2CCCN2)CSSC[C@@H](C(=O)N[C@H](C(=O)O)C(C)C)NC1=O [Peptide-21] | – | 1.95 | 0.5 | – |
| CC[C@H](C)[C@@H]1NC(=O)[C@H](Cc2c[nH]cn2)NC(=O)[C@H](CO)NC(=O)[C@H](C)NC(=O)[C@@H](NC(=O)[C@@H]2CCCN2)CSSC[C@@H](C(=O)N[C@H](C(=O)O)C(C)C)NC(=O)[C@H]([C@@H](C)CC)NC(=O)[C@@H]2CCCN2C(=O)[C@H](CCCCN)NC(=O)[C@H](C)NC(=O)[C@H](C(C)C)NC(=O)[C@H](CC(=O)O)NC1=O [Peptide-18] | – | 5.6 | 1.4 | – |
| CC[C@H](C)[C@@H]1NC(=O)[C@H](Cc2c[nH]cn2)NC(=O)[C@H](CO)NC(=O)[C@H](CCCNC(=N)N)NC(=O)[C@@H](NC(=O)[C@H](C)N)CSSC[C@@H](C(=O)N[C@H](C(=O)O)C(C)C)NC(=O)[C@H]([C@@H](C)CC)NC(=O)[C@@H]2CCCN2C(=O)[C@H](CCCCN)NC(=O)[C@H](C)NC(=O)[C@H](C(C)C)NC(=O)[C@H](CC(=O)O)NC1=O [Peptide-17] | – | 16 | 4.1 | – |
| CC[C@H](C)[C@@H]1NC(=O)[C@H](C)NC(=O)[C@H](CO)NC(=O)[C@H](CCCNC(=N)N)NC(=O)[C@@H](NC(=O)[C@@H]2CCCN2)CSSC[C@@H](C(=O)N[C@H](C(=O)O)C(C)C)NC(=O)[C@H]([C@@H](C)CC)NC(=O)[C@@H]2CCCN2C(=O)[C@H](CCCCN)NC(=O)[C@H](C)NC(=O)[C@H](C(C)C)NC(=O)[C@H](CC(=O)O)NC1=O [Peptide-20] | – | 11 | 2.8 | – |
| CC[C@H](C)[C@@H]1NC(=O)[C@H](Cc2c[nH]cn2)NC(=O)[C@H](CO)NC(=O)[C@H](CCCNC(=N)N)NC(=O)[C@@H](NC(=O)[C@@H]2CCCN2)CSSC[C@@H](C(=O)N[C@@H](C)C(=O)O)NC(=O)[C@H]([C@@H](C)CC)NC(=O)[C@@H]2CCCN2C(=O)[C@H](CCCCN)NC(=O)[C@H](C)NC(=O)[C@H](C(C)C)NC(=O)[C@H](CC(=O)O)NC1=O [Peptide-27] | 3.1 | – | – | Fold shift in IC50 relative to Peptide-8 (IC50 Ala mutant/IC50 Peptide-8) ([1]; Table 21): 2.2 |
| CC[C@H](C)[C@@H]1NC(=O)[C@H](Cc2c[nH]cn2)NC(=O)[C@H](CO)NC(=O)[C@H](CCCNC(=N)N)NC(=O)[C@@H](NC(=O)[C@@H]2CCCN2)CSSC[C@@H](C(=O)N[C@H](C(=O)O)C(C)C)NC(=O)[C@H]([C@@H](C)CC)NC(=O)[C@@H]2CCCN2C(=O)[C@H](CCCCN)NC(=O)[C@H](C)NC(=O)[C@H](C)NC(=O)[C@H](CC(=O)O)NC1=O [Peptide-23] | 3.8 | – | – | Fold shift in IC50 relative to Peptide-8 (IC50 Ala mutant/IC50 Peptide-8) ([1]; Table 21): 2.7 |
